Source: ChEMBL document CHEMBL3885861, “Open TG-GATES”

Organism: Rattus norvegicus
Test: Open TG-GATES - Regimen: Daily Repeat
Format: toxicity, organism-based, Sprague-Dawley
Design: regimen Daily Repeat, gender Male, age 6 weeks
Settings: in vivo, po, 2 mg/kg, route gavage, dose level Middle; for APTT / Bas / Eos / Fbg / Hb / Ht / Lym / MCH / MCHC / MCV / Mono / Neu / PT / Plat / RBC / Ret / WBC: tissue Blood; for KIDNEY_L / KIDNEY_R / KIDNEY_TOTAL: tissue Kidney; for LIVER: tissue Liver; for A/G / ALP / ALT / AST / BUN / CRE / Ca / Cl / DBIL / GLC / IP / K / LDH / Na / PL / RALB / TBIL / TC / TG / TP / gamma-GTP: tissue Plasma

O=NN(CCCl)C(=O)NC1CCCCC1 [LOMUSTINE]
TERMINAL_BW (72 h, time 3 day): 220 g | APTT (72 h, time 3 day): 16.8 s | Bas (72 h, time 3 day): 0% | Eos (72 h, time 3 day): 0.8% | Fbg (72 h, time 3 day): 231.8 mg/dL | Hb (72 h, time 3 day): 13.3 g/dL | Ht (72 h, time 3 day): 39.9% | Lym (72 h, time 3 day): 82.4% | MCH (72 h, time 3 day): 21.1 pg | MCHC (72 h, time 3 day): 33.2% | MCV (72 h, time 3 day): 63.7 fL | Mono (72 h, time 3 day): 7.4% | Neu (72 h, time 3 day): 9.6% | PT (72 h, time 3 day): 11.7 s | Plat (72 h, time 3 day): 108 x10_4/uL | RBC (72 h, time 3 day): 628 x10_4/ul | Ret (72 h, time 3 day): 6.9% | WBC (72 h, time 3 day): 109.9 x10_2/uL | KIDNEY_L (72 h, time 3 day): 1 g | KIDNEY_R (72 h, time 3 day): 1 g | KIDNEY_TOTAL (72 h, time 3 day): 2 g | LIVER (72 h, time 3 day): 11.4 g | A/G (72 h, time 3 day): 2 | ALP (72 h, time 3 day): 962.6 IU/L | ALT (72 h, time 3 day): 29.8 IU/L | AST (72 h, time 3 day): 59.4 IU/L | BUN (72 h, time 3 day): 17 mg/dL | CRE (72 h, time 3 day): 0.4 mg/dL | Ca (72 h, time 3 day): 11 mg/dL | Cl (72 h, time 3 day): 105.8 meq/L | DBIL (72 h, time 3 day): 0.01 mg/dL | GLC (72 h, time 3 day): 186.2 mg/dL | IP (72 h, time 3 day): 7.9 mg/dL | K (72 h, time 3 day): 4.7 meq/L | LDH (72 h, time 3 day): 84 IU/L | Na (72 h, time 3 day): 139.4 meq/L | PL (72 h, time 3 day): 152.8 mg/dL | RALB (72 h, time 3 day): 4 g/dL | TBIL (72 h, time 3 day): 0.4 mg/dL | TC (72 h, time 3 day): 83.2 mg/dL | TG (72 h, time 3 day): 100.8 mg/dL | TP (72 h, time 3 day): 5.9 g/dL | gamma-GTP (72 h, time 3 day): 1.4 IU/L | TERMINAL_BW ([…], time 7 day): 246.4 g | TERMINAL_BW ([…], time 14 day): 298.5 g | TERMINAL_BW ([…], time 28 day): 364.6 g | APTT ([…], time 7 day): 15.6 s | Bas ([…], time 7 day): 0% | Eos ([…], time 7 day): 1% | Fbg ([…], time 7 day): 246.8 mg/dL | Hb ([…], time 7 day): 13.9 g/dL | Ht ([…], time 7 day): 42% | Lym ([…], time 7 day): 80% | MCH ([…], time 7 day): 21 pg | MCHC ([…], time 7 day): 33.3% | MCV ([…], time 7 day): 63.2 fL | Mono ([…], time 7 day): 7.4% | Neu ([…], time 7 day): 11.6% | PT ([…], time 7 day): 11.4 s | Plat ([…], time 7 day): 98.8 x10_4/uL | RBC ([…], time 7 day): 664.2 x10_4/ul | Ret ([…], time 7 day): 5.1% | WBC ([…], time 7 day): 103.8 x10_2/uL | APTT ([…], time 14 day): 16.4 s | Bas ([…], time 14 day): 0% | Eos ([…], time 14 day): 0.6% | Fbg ([…], time 14 day): 228.4 mg/dL | Hb ([…], time 14 day): 14.3 g/dL | Ht ([…], time 14 day): 42.9% | Lym ([…], time 14 day): 81.8% | MCH ([…], time 14 day): 20.3 pg | MCHC ([…], time 14 day): 33.2% | MCV ([…], time 14 day): 61.2 fL | Mono ([…], time 14 day): 5.8% | Neu ([…], time 14 day): 11.8% | PT ([…], time 14 day): 11.4 s | Plat ([…], time 14 day): 129.2 x10_4/uL | RBC ([…], time 14 day): 701.8 x10_4/ul | Ret ([…], time 14 day): 4.3% | WBC ([…], time 14 day): 127.6 x10_2/uL | APTT ([…], time 28 day): 16 s | Bas ([…], time 28 day): 0% | Eos ([…], time 28 day): 1% | Fbg ([…], time 28 day): 230.4 mg/dL | Hb ([…], time 28 day): 14.9 g/dL | Ht ([…], time 28 day): 44.4% | Lym ([…], time 28 day): 80% | MCH ([…], time 28 day): 19 pg | MCHC ([…], time 28 day): 33.5% | MCV ([…], time 28 day): 56.9 fL | Mono ([…], time 28 day): 7.6% | Neu ([…], time 28 day): 11.6% | PT ([…], time 28 day): 11.3 s | Plat ([…], time 28 day): 113.9 x10_4/uL | RBC ([…], time 28 day): 780.6 x10_4/ul | Ret ([…], time 28 day): 2.5% | WBC ([…], time 28 day): 145.6 x10_2/uL | KIDNEY_L ([…], time 7 day): 1 g | KIDNEY_R ([…], time 7 day): 1 g | KIDNEY_TOTAL ([…], time 7 day): 2 g | KIDNEY_L ([…], time 14 day): 1.2 g | KIDNEY_R ([…], time 14 day): 1.2 g | KIDNEY_TOTAL ([…], time 14 day): 2.5 g | KIDNEY_L ([…], time 28 day): 1.4 g | KIDNEY_R ([…], time 28 day): 1.4 g | KIDNEY_TOTAL ([…], time 28 day): 2.7 g | LIVER ([…], time 7 day): 13 g | LIVER ([…], time 14 day): 14.1 g | LIVER ([…], time 28 day): 16.6 g | A/G ([…], time 7 day): 1.7 | ALP ([…], time 7 day): 976.4 IU/L | ALT ([…], time 7 day): 47.2 IU/L | AST ([…], time 7 day): 85.8 IU/L | BUN ([…], time 7 day): 19.6 mg/dL | CRE ([…], time 7 day): 0.4 mg/dL | Ca ([…], time 7 day): 11.2 mg/dL | Cl ([…], time 7 day): 105.8 meq/L | DBIL ([…], time 7 day): 0.016 mg/dL | GLC ([…], time 7 day): 181.8 mg/dL | IP ([…], time 7 day): 7.7 mg/dL | K ([…], time 7 day): 4.6 meq/L | LDH ([…], time 7 day): 87 IU/L | Na ([…], time 7 day): 139.8 meq/L | PL ([…], time 7 day): 169.6 mg/dL | RALB ([…], time 7 day): 3.8 g/dL | TBIL ([…], time 7 day): 0.3 mg/dL | TC ([…], time 7 day): 98.8 mg/dL | TG ([…], time 7 day): 95.6 mg/dL | TP ([…], time 7 day): 6.1 g/dL | gamma-GTP ([…], time 7 day): 2.2 IU/L | A/G ([…], time 14 day): 2.1 | ALP ([…], time 14 day): 822.6 IU/L | ALT ([…], time 14 day): 36.2 IU/L | AST ([…], time 14 day): 66.8 IU/L | BUN ([…], time 14 day): 17.4 mg/dL | CRE ([…], time 14 day): 0.5 mg/dL | Ca ([…], time 14 day): 11.4 mg/dL | Cl ([…], time 14 day): 106.4 meq/L | DBIL ([…], time 14 day): 0.032 mg/dL | GLC ([…], time 14 day): 183.8 mg/dL | IP ([…], time 14 day): 7.3 mg/dL | K ([…], time 14 day): 4.6 meq/L | LDH ([…], time 14 day): 94.8 IU/L | Na ([…], time 14 day): 140.2 meq/L | PL ([…], time 14 day): 166 mg/dL | RALB ([…], time 14 day): 4.1 g/dL | TBIL ([…], time 14 day): 0.3 mg/dL | TC ([…], time 14 day): 77.2 mg/dL | TG ([…], time 14 day): 136 mg/dL | TP ([…], time 14 day): 6.1 g/dL | gamma-GTP ([…], time 14 day): 2.4 IU/L | A/G ([…], time 28 day): 1.7 | ALP ([…], time 28 day): 637.8 IU/L | ALT ([…], time 28 day): 61.4 IU/L | AST ([…], time 28 day): 115.8 IU/L | BUN ([…], time 28 day): 19.6 mg/dL | CRE ([…], time 28 day): 0.4 mg/dL | Ca ([…], time 28 day): 11.1 mg/dL | Cl ([…], time 28 day): 106.8 meq/L | DBIL ([…], time 28 day): 0.054 mg/dL | GLC ([…], time 28 day): 186.6 mg/dL | IP ([…], time 28 day): 6.3 mg/dL | K ([…], time 28 day): 4.5 meq/L | LDH ([…], time 28 day): 163 IU/L | Na ([…], time 28 day): 139.8 meq/L | PL ([…], time 28 day): 192.4 mg/dL | RALB ([…], time 28 day): 4.1 g/dL | TBIL ([…], time 28 day): 0.3 mg/dL | TC ([…], time 28 day): 106.6 mg/dL | TG ([…], time 28 day): 85.4 mg/dL | TP ([…], time 28 day): 6.5 g/dL | gamma-GTP ([…], time 28 day): 3.6 IU/L
